# Reference: patent US20120014911A1, “Regulators of the Interferon-Alpha Receptor 1 (IFNAR1) Chain of the Interferon Receptor” (priority 2009, published 2012)
# Counter-ions that a name gives are not always drawn. Like-named read-outs stand apart in the source and are kept apart here.
# Experiments:
# [1] = system: ligand-inducible IFNAR1 degron kinase activity; assay: Phosphorylation-binding assay: GST-IFNAR1 phosphorylated by CK1α-depleted lysates of IFN-α-treated cells, then binding of 35S-labeled β-Trcp2; type: biochemical, human; settings: inhibitor added in vitro: H89 200 nM, BAY43-9006 50 nM, Bis-I 25 nM, Gö6976 25 nM, LY294002 1.5 μM, SP600125 100 nM, D4476 400 nM, SB203580 100 nM
# Protocol: For some binding assays, the lysates from 293T cells (treated for various tunes with IFN-α, 2000 IU/mL) were depleted of CK1α (as described previously (Liu, et al., 2009, Mal Cell Biol 29(24):6401-12) were incubated with GST-IFNAR1 proteins (wild type or S535,539A mutant that migrates slower on SDS-PAGE due to the presence of four additional amino acids in the linker), ATP and kinase inhibitors (as indicated) for 30 min at 30° C. After that, GST-IFNAR1 were purified and incubated with in vitro translated and 35S-methionine-labeled 3-Trcp2 for 1 h at 4° C.; this binding was later analyzed by autoradiography and Coomassie staining. In vitro serine phosphorylation of GST-IFNAR1 (analyzed by autoradiography or IB with pS535 antibody) by cell extracts or PKD preparations and tyrosine phosphorylation of GST-PKD2 by Tyk2 was carried out and analyzed as described elsewhere herein.
# For other binding assays, the lysates from 293T cells (treated for various times with IFN-α, 2000 IU/mL) underwent two rounds of immunodepletion of CK1α as described elsewhere (Liu, et al., 2009, Mol Cell Biol 29(24):6401-12). GST-IFNAR1 proteins (wild type or S535,539A mutant that migrates slower on SDS-PAGE due to the presence of four additional amino acids in the linker (Liu et al., 2009, Cell Host Microbe 5(1):72-83)) were expressed and purified from bacterial cells using glutathione Sepharose. Purified bacterial proteins (2 μg) were incubated in the presence of CK1α-depleted cell lysates (5 μg), unlabeled ATP (0.5 mM) in total volume of 20 μL (containing 25 mM Tris-HCL pH 7.5, 5 mM MgCl2, 100 mM KCl, 1 mM EGTA, 1 mM Na3VO4, 0.1 mM DTT and 3.5% glycerol) for 30 min at 30° C. When indicated, the following kinase inhibitors were added to the reaction in I pi, of DMSO to the final concentration indicated: H89 (200 nM), BAY43-9006 (50 nM), Bis-I (25 nM), Gö6976 (25 nM), LY294002 (1.5 μM), SP600125 (100 nM), D4476 (400 nM), SB203580 (100 nM). The reactions were stopped by placing the tubes on ice and adding 150 μL of ice-cold binding buffer (PBS supplemented with 0.1% NP40 and 50 mM NaF) and incubated with glutathione Sepharose beads (20 μL) for 2 h at 4° C. The beads were then washed three times with 0.5 mL of binding buffer and incubated with 2 μL of in vitro translated and 35S-methionine-labeled13-Trcp2 for 1 h at 4° C. Beads were then washed three times with 1 mL of binding buffer, and the proteins were eluted using Laemmli buffer, resolved by SDS-PAGE, and analyzed by autoradiography and Coomassie staining.
# [2] = system: IFNAR1 Ser535 phosphorylation; type: cell-based, human
# IFNAR1 [3] = system: IFNAR1
# IFNAR1 [4] = type: cell-based, human
# Stat1 = Stat1 tyrosine phosphorylation in response to IFN-α, immunoblot; type: cell-based, human
# [5] = system: IFNAR1 Ser535 phosphorylation; type: cell-based, human; remark: listed apart in the source
# [6] = system: IFNAR1 Ser532 phosphorylation; type: cell-based, human
compound,measurement,setting,value
CNC(=O)c1cc(Oc2ccc(NC(=O)Nc3ccc(Cl)c(C(F)(F)F)c3)cc2)ccn1 [BAY 43-9006],recruitment of β-Trcp2 to GST-IFNAR1 (phosphorylation-binding assay),[1],not inhibited
"CN(C)CCCn1cc(C2=C(c3c[nH]c4ccccc34)C(=O)NC2=O)c2ccccc21 [Bis I, bisindolylmaleimide I]",recruitment of β-Trcp2 to GST-IFNAR1 (phosphorylation-binding assay),[1],did not affect
NCCNS(=O)(=O)c1ccc(Cl)c2ccncc12 [CKI-7],ligand-independent Ser535 phosphorylation of Flag-IFNAR1,[2],decreased
NC(=O)c1ccc(-c2nc(-c3ccc4c(c3)OCCO4)c(-c3ccccn3)[nH]2)cc1 [D4476],recruitment of β-Trcp2 to GST-IFNAR1 (phosphorylation-binding assay),[1],noticeable inhibition
same,Ser535 phosphorylation of IFNAR1 in response to TG,[2],noticeably attenuated
same,TG-induced phosphorylation of eIF2α,[2],comparable induction
same,eIF2a phosphorylation in VSV-infected cells,[2],without affecting
same,virus-induced S535 phosphorylation of IFNAR1,[2],markedly attenuated
same,virus-induced downregulation of IFNAR1,[2],markedly attenuated
O=S(=O)(NCCNC/C=C/c1ccc(Br)cc1)c1cccc2cnccc12 [H89],recruitment of β-Trcp2 to GST-IFNAR1 (phosphorylation-binding assay),[1],noticeable inhibition
C[S+]([O-])c1ccc(-c2nc(-c3ccncc3)c(-c3ccc(F)cc3)[nH]2)cc1 (stereo not shown) [SB203580],recruitment of β-Trcp2 to GST-IFNAR1 (phosphorylation-binding assay),[1],not inhibited
OO [hydrogen peroxide],phosphorylation of endogenous IFNAR1 on Ser535 in the absence of IFN-α,IFNAR1 [3]; HeLa cells,noticeably stimulated
CN [methylamine HCl],thapsigargin-induced decrease of IFNAR1 levels,IFNAR1 [4]; 293T cells pre-treated with MA 20 mM 1 h,prevented
C/C=C(/C)C(=O)O[C@H]1C(C)=C2[C@H]([C@@H]1OC(=O)CCCCCCC)[C@@](C)(OC(C)=O)C[C@H](OC(=O)CCC)[C@@]1(O)[C@H]2OC(=O)[C@@]1(C)O [thapsigargin],tyrosine phosphorylation of Stat1 induced by IFN-α,"Stat1; 293T cells pre-treated with TG 1 μM 4 h, IFNα 50 IU/ml 30 min",noticeably decreased
same,activation of PERK assessed via phosphorylation of eIF2α,"[2]; 293T cells, TG 1 μM 30 min",caused activation of PERK
same,Ser535 phosphorylation of IFNAR1 in cells with wild type (WT) or catalytically inactive (KR) Tyk2,"[5]; 2fTGH-derived Tyk2 WT vs KR cells, 30 min",comparable levels
same,phosphorylation of endogenous IFNAR1 on Ser535 in the absence of IFN,"[5]; 293T cells, TG 1 μM 30 min, DTT 5 mM 30 min",stimulated
same,half life of IFNAR1,"IFNAR1 [4]; 293T cells treated with cycloheximide, TG 1 μM",decreased
same,levels of IFNAR1,"IFNAR1 [4]; human 293T cells, TG 1 μM, within two hours, absence of IFN",decreased
same,ubiquitination of IFNAR1,IFNAR1 [4]; human fibrosarcoma cells with WT or KR Tyk2 and 293T cells,induced
same,extent of ubiquitination of wild type IFNAR1,"[6]; Flag-IFNAR1 in 293T cells, TG 1 μM",noticeably increased
same,phosphorylation of endogenous IFNAR1 on Ser532 and Ser535,"[6]; HeLa cells, TG 1 μM 30 min",led to phosphorylation of endogenous IFNAR1 on both Ser532 and Ser535
VEGF,Stat1 phosphorylation in response to IFN-α,"Stat1; human umbilical vein endothelial cells, VEGF 100 ng/ml 2 h, IFN-α 15 min",noticeably inhibits
same,phosphorylation of Flag-IFNAR1 on Ser535,"IFNAR1 [3]; U3A cells stably expressing Flag-IFNAR1, VEGF 100 ng/ml",increased
same,ubiquitination of IFNAR1,"IFNAR1 [3]; U3A-Flag-IFNAR1 cells, VEGF treatment",stimulated
